Measured values from patent publication US9850283B2, “Macrocyclic inhibitors of the PD-1/PD-L1 and CD80(B7-1)/PD-L1 protein/protein interactions” (BRISTOL-MYERS SQUIBB COMPANY, priority 2013, dated 2017).
Where two headings read alike, the source gives them in different places. Positions of bridges follow the written chain, without caps; N, C: chain ends. Non-standard residues stand in square brackets, D forms with d. Residues, ends and D or L forms follow the SMILES beside them. ξ: configuration not given here. *: point of attachment. Pro(trans-4-F) = O=C(O)[C@@H]1C[C@@H](F)CN1; NMe2Nal = CN[C@@H](Cc1ccc2ccccc2c1)C(=O)O; Phe(4-Cl) = N[C@@H](Cc1ccc(Cl)cc1)C(=O)O; Bta = N[C@@H](Cc1csc2ccccc12)C(=O)O; Hyp = O=C(O)[C@@H]1C[C@@H](O)CN1; NMeF = CN[C@@H](Cc1ccccc1)C(=O)O; NMeNle = CCCC[C@H](NC)C(=O)O; NMeS = CN[C@@H](CO)C(=O)O; NMeA = CN[C@@H](C)C(=O)O; Orn = NCCC[C@H](N)C(=O)O; Dap = NC[C@H](N)C(=O)O; Bz = O=C(c1ccccc1)*; ξC = NC(CS)C(=O)O; Sar = CNCC(=O)O

Legend:
Human PD-L1/PD-1 = biological target: T1, Human PD-L1/PD-1 (Homo sapiens, UniProt Q9NZQ7); experiment: HTRF PD-1-Ig/PD-L1-His binding assay (human PD-L1); details: cluster symbol
T1 construct: made in house; host or cells: HEK293T
T1 sequence (Q9NZQ7 with tags, fused parts or gaps): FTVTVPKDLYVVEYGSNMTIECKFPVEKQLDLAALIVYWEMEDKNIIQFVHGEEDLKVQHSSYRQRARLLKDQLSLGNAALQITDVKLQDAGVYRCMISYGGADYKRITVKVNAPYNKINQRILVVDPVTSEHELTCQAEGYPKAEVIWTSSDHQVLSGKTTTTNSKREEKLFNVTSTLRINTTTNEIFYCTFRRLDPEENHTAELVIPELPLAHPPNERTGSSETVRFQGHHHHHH
How it was run: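 HTRF read-out: Eu cryptate anti-Ig mAb 1 nM final, APC anti-His mAb 20 nM final, added over the binding reaction. Proteins were PD-1-Ig and PD-L1-His ectodomain fusions. Buffer was dPBS, 0.1% BSA, 0.05% Tween-20.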

[1] = biological target: T2, LK35.2-hPD-L1 cells / PE-labeled PD-1-Ig (Homo sapiens, UniProt Q9NZQ7); experiment: LK35.2-hPD-L1 cell binding high-content screening assay; assay type: cell-based; details: cluster symbol
T2 construct: expressed in transfected cells; host or cells: LK35.2 mouse B cell line
T2 sequence (Q9NZQ7 19-290): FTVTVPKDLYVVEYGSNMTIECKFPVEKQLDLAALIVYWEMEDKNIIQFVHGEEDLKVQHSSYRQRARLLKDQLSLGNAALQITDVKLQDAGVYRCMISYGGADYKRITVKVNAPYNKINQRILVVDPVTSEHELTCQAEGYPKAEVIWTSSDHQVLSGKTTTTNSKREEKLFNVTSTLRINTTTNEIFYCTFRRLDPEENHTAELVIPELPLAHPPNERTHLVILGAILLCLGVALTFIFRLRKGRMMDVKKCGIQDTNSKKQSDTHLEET
How it was run: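 Binding of PE-conjugated human PD-1-Ig (1 nM final) to human PD-L1 stably expressed on a mouse B-cell line (LK35.2) was measured by high-content imaging after washes. Compound and labeled PD-1-Ig were co-incubated 1 h at 37 °C with cells in RPMI/10% FCS.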

[2] = cell line of CBA not given (LK35.2-hPD-L1 or 293T-hPD-L1), read-out: CBA IC50 cluster
[3] = cell binding assay, cell line not given, read-out: CBA IC50 cluster

Compound	IC50 (Human PD-L1/PD-1; read-out: HTRF IC50 cluster) [nM]	IC50 [1, 2] [nM]	IC50 [1, 3] [nM]	IC50 (Human PD-L1/PD-1; HTRF IC50 cluster) [nM]	IC50 ([1]; CBA IC50 cluster, cell line of CBA not given (LK35.2-hPD-L1 or 293T-hPD-L1)) [nM]
CCCC[C@H]1C(=O)N(C)[C@@H](CCCC)C(=O)N[C@@H](C)C(=O)N[C@H](C(=O)NCC(N)=O)CSCC(=O)N[C@@H](Cc2ccc(O)cc2)C(=O)N(C)[C@@H](C)C(=O)N[C@@H](CC(=O)O)C(=O)N2CCC[C@H]2C(=O)N[C@@H](Cc2cnc[nH]2)C(=O)N[C@@H](CC(C)C)C(=O)N2C[C@H](O)C[C@H]2C(=O)N[C@@H](Cc2c[nH]c3ccccc23)C(=O)N[C@@H](CO)C(=O)N[C@@H](Cc2c[nH]c3ccccc23)C(=O)N1C [Example 1165]	0.385 to 6.74	0.158 to 4.71	–	–	–
CCCC[C@H]1C(=O)N(C)CC(=O)N[C@@H](CCC(=O)O)C(=O)N[C@@H](C(C)C)C(=O)N(C)[C@@H](Cc2ccccc2)C(=O)N[C@@H](Cc2ccc(O)cc2)C(=O)N(C)CC(=O)N[C@@H](Cc2c[nH]c3ccccc23)C(=O)N[C@@H](Cc2ccc(O)cc2)C(=O)N[C@@H](CC(C)C)C(=O)N[C@H](C(=O)NCC(N)=O)CSCC(=O)N[C@@H](Cc2ccccc2)C(=O)N(C)[C@@H](Cc2ccccc2)C(=O)N1C [Example 3502] (HELM PEPTIDE1{[O=C(C[*:3])[*:2]].F.[meF].[CCCC[C@@H](C(=O)[*:2])N(C)[*:1]].[Sar].E.V.[meF].Y.[Sar].W.Y.L.C.G.[am]}$PEPTIDE1,PEPTIDE1,1:R3-14:R3$$$V2.0)	6.76 to 30.3	–	4.78 to 72.9	–	–
CCCC[C@H]1C(=O)N2CCC[C@@H]2C(=O)N[C@@H](CC(=O)O)C(=O)N[C@@H](C(C)C)C(=O)N(C)[C@@H](Cc2ccccc2)C(=O)N[C@@H](CCCN)C(=O)N2CCC[C@@H]2C(=O)N[C@@H](Cc2c[nH]c3ccccc23)C(=O)N[C@@H](Cc2ccc(O)cc2)C(=O)N[C@@H](CC(C)C)C(=O)N[C@H](C(=O)NCC(N)=O)CSCC(=O)N[C@@H](Cc2ccccc2)C(=O)N(C)[C@@H](Cc2ccccc2)C(=O)N1C [Example 3188] (HELM PEPTIDE1{[O=C(C[*:3])[*:2]].F.[meF].[CCCC[C@@H](C(=O)[*:2])N(C)[*:1]].[dP].D.V.[meF].[Orn].[dP].W.Y.L.C.G.[am]}$PEPTIDE1,PEPTIDE1,1:R3-14:R3$$$V2.0)	6.76 to 30.3	0.158 to 4.71	–	–	–
CCCC[C@H]1C(=O)N(C)CC(=O)N[C@@H](CC(=O)O)C(=O)N[C@@H](C(C)C)C(=O)N(C)[C@@H](Cc2ccccc2)C(=O)N[C@@H](CC(C)C)C(=O)N(C)CC(=O)N[C@@H](Cc2c[nH]c3ccccc23)C(=O)N[C@@H](Cc2ccc(O)cc2)C(=O)N[C@@H](CC(C)C)C(=O)N[C@H](C(=O)NCC(N)=O)CSCC(=O)N[C@@H](Cc2ccccc2)C(=O)N(C)[C@@H](Cc2ccccc2)C(=O)N1C [Example 3505] (HELM PEPTIDE1{[O=C(C[*:3])[*:2]].F.[meF].[CCCC[C@@H](C(=O)[*:2])N(C)[*:1]].[Sar].D.V.[meF].L.[Sar].W.Y.L.C.G.[am]}$PEPTIDE1,PEPTIDE1,1:R3-14:R3$$$V2.0)	6.76 to 30.3	–	4.78 to 72.9	–	–
CCCC[C@H]1C(=O)N[C@@H](CCCNC(=N)N)C(=O)N[C@H](C(=O)NCC(N)=O)CSCC(=O)N[C@@H](Cc2ccccc2)C(=O)N(C)[C@@H](C)C(=O)N[C@@H](CC(N)=O)C(=O)N2CCC[C@H]2C(=O)N[C@@H](Cc2cnc[nH]2)C(=O)N[C@@H](CC(C)C)C(=O)N(C)CC(=O)N[C@@H](Cc2c[nH]c3ccccc23)C(=O)N[C@@H](CO)C(=O)N[C@@H](Cc2c[nH]c3ccccc23)C(=O)N[C@@H](CNC(=O)c2ccccc2)C(=O)N1C [Example 1013] ({CH2CO}-F[NMeA]NPHL[Sar]WSW[Dap](Bz)[NMeNle]RCG-NH2; thioether N-14)	–	–	–	> 30.5	> 74.3
CCCC[C@H]1C(=O)N(C)[C@@H](CCCC)C(=O)N[C@@H](CCCNC(=N)N)C(=O)N[C@H](C(=O)NCC(N)=O)CSCC(=O)N[C@@H](Cc2ccc(O)cc2)C(=O)N(C)[C@@H](C)C(=O)N[C@@H](CC(N)=O)C(=O)N2CCC[C@H]2C(=O)N[C@@H](CN)C(=O)N[C@@H](CC(C)C)C(=O)N2C[C@H](O)C[C@H]2C(=O)N[C@@H](Cc2c[nH]c3ccccc23)C(=O)N[C@@H](CO)C(=O)N[C@@H](Cc2csc3ccccc23)C(=O)N1C [Example 1118] ({CH2CO}-Y[NMeA]NP[Dap]L[Hyp]WS[Bta][NMeNle][NMeNle]RCG-NH2; thioether N-14)	6.76 to 30.3	0.158 to 4.71	–	–	–
CCCC[C@H]1C(=O)N(C)CC(=O)N[C@@H](CC(=O)O)C(=O)N[C@@H](C(C)C)C(=O)N(C)[C@@H](Cc2ccccc2)C(=O)N[C@@H](Cc2ccc(O)cc2)C(=O)N(C)CC(=O)N[C@@H](Cc2c[nH]c3ccccc23)C(=O)N[C@@H](Cc2ccc(O)cc2)C(=O)N[C@@H](Cc2ccc(Cl)cc2)C(=O)N[C@H](C(=O)NCC(N)=O)CSCC(=O)N[C@@H](Cc2ccccc2)C(=O)N(C)[C@@H](Cc2ccccc2)C(=O)N1C [Example 3098] ({CH2CO}-F[NMeF][NMeNle][Sar]DV[NMeF]Y[Sar]WY[Phe(4-Cl)]CG-NH2; thioether N-13)	> 30.5	4.78 to 72.9	–	–	–

Second part, led by results:

IC50 (Human PD-L1/PD-1; read-out: HTRF IC50 cluster) [nM]	IC50 [1, 2] [nM]	IC50 [1, 3] [nM]	Compound	IC50 (Human PD-L1/PD-1; HTRF IC50 cluster) [nM]	IC50 ([1]; CBA IC50 cluster, cell line of CBA not given (LK35.2-hPD-L1 or 293T-hPD-L1)) [nM]
0.385 to 6.74	–	0.158 to 4.71	CCCC[C@H]1C(=O)N(C)[C@@H](CCCC)C(=O)N[C@@H](CCCNC(=N)N)C(=O)N[C@H](C(=O)NCC(N)=O)CSCC(=O)N[C@@H](Cc2ccc(OC)cc2)C(=O)N(C)[C@@H](C)C(=O)N[C@@H](CC(N)=O)C(=O)N2CCC[C@H]2C(=O)N[C@@H](CN)C(=O)N[C@@H](CC(C)C)C(=O)N2C[C@H](O)C[C@H]2C(=O)N[C@@H](Cc2c[nH]c3ccccc23)C(=O)N[C@@H](CO)C(=O)N[C@@H](Cc2c[nH]c3ccccc23)C(=O)N1C [Example 7039] ({CH2CO}-Y(Me)[NMeA]NP[Dap]L[Hyp]WSW[NMeNle][NMeNle]RCG-NH2; thioether N-14)	–	–
6.76 to 30.3	–	4.78 to 72.9	CCCC[C@H]1C(=O)N(C)CC(=O)N[C@@H](CC(N)=O)C(=O)N[C@@H](C(C)C)C(=O)N(C)[C@@H](Cc2ccccc2)C(=O)N[C@@H](Cc2ccc(O)cc2)C(=O)N(C)CC(=O)N[C@@H](Cc2c[nH]c3ccccc23)C(=O)N[C@@H](Cc2ccc(O)cc2)C(=O)N[C@@H](CCCN)C(=O)N[C@H](C(=O)NCC(N)=O)CSCC(=O)N[C@@H](Cc2ccccc2)C(=O)N(C)[C@@H](Cc2ccc3ccccc3c2)C(=O)N1C [Example 3603] ({CH2CO}-F[NMe2Nal][NMeNle][Sar]NV[NMeF]Y[Sar]WY[Orn]CG-NH2; thioether N-13)	–	–
> 30.5	–	> 74.3	CCCC[C@H]1C(=O)N(C)[C@@H](CCCC)C(=O)N[C@@H]([C@@H](C)O)C(=O)N[C@H](C(=O)NCC(N)=O)CSCC(=O)N[C@@H](Cc2ccccc2)C(=O)N(C)[C@@H](C)C(=O)N[C@@H](CC(N)=O)C(=O)N2CCC[C@H]2C(=O)N[C@@H](Cc2cnc[nH]2)C(=O)N[C@@H](CC(C)C)C(=O)N(C)CC(=O)N[C@@H](Cc2c[nH]c3ccccc23)C(=O)N[C@@H](CO)C(=O)N[C@@H](Cc2c[nH]c3ccccc23)C(=O)N1C [Example 5021] ({CH2CO}-F[NMeA]NPHL[Sar]WSW[NMeNle][NMeNle]TCG-NH2; thioether N-14)	–	–
6.76 to 30.3	–	4.78 to 72.9	CCCC[C@H]1C(=O)N(C)[C@@H](CCCC)C(=O)N[C@@H](CCCNC(=N)N)C(=O)N[C@H](C(=O)NCC(N)=O)CSCC(=O)N[C@@H](Cc2ccccc2)C(=O)N(C)[C@@H](C)C(=O)N[C@@H](CC(N)=O)C(=O)N2CCC[C@H]2C(=O)N[C@@H](Cc2cnc[nH]2)C(=O)N[C@@H](CCC(N)=O)C(=O)N(C)CC(=O)N[C@@H](Cc2c[nH]c3ccccc23)C(=O)N[C@@H](CO)C(=O)N[C@@H](Cc2c[nH]c3ccccc23)C(=O)N1C [Example 6006] ({CH2CO}-F[NMeA]NPHQ[Sar]WSW[NMeNle][NMeNle]RCG-NH2; thioether N-14)	–	–
0.385 to 6.74	–	0.158 to 4.71	CCCC[C@H]1C(=O)N(C)[C@@H](CCCC)C(=O)N[C@@H](CCCN)C(=O)N[C@H](C(=O)NCC(N)=O)CSCC(=O)N[C@@H](Cc2ccc(O)cc2)C(=O)N(C)[C@@H](C)C(=O)N[C@@H](CC(N)=O)C(=O)N2CCC[C@H]2C(=O)N[C@@H](CN)C(=O)N[C@@H](CC(C)C)C(=O)N2C[C@H](F)C[C@H]2C(=O)N[C@@H](Cc2c[nH]c3ccccc23)C(=O)N[C@@H](CO)C(=O)N[C@@H](Cc2c[nH]c3ccccc23)C(=O)N1C [Example 13003] ({CH2CO}-Y[NMeA]NP[Dap]L[Pro(trans-4-F)]WSW[NMeNle][NMeNle][Orn]CG-NH2; thioether N-14)	–	–
0.385 to 6.74	–	0.158 to 4.71	CCCC[C@H]1C(=O)N(C)[C@@H](CCCC)C(=O)N[C@@H](CC(C)C)C(=O)N[C@H](C(=O)NCC(N)=O)CSCC(=O)N[C@@H](Cc2ccc(O)cc2)C(=O)N(C)[C@@H](C)C(=O)N[C@@H](CC(N)=O)C(=O)N2CCC[C@H]2C(=O)N[C@@H](CO)C(=O)N[C@@H](CCC(N)=O)C(=O)N2C[C@H](O)C[C@H]2C(=O)N[C@@H](Cc2c[nH]c3ccccc23)C(=O)N[C@@H](CO)C(=O)N[C@@H](Cc2c[nH]c3ccccc23)C(=O)N1C [Example 5115] ({CH2CO}-Y[NMeA]NPSQ[Hyp]WSW[NMeNle][NMeNle]LCG-NH2; thioether N-14)	–	–
0.385 to 6.74	–	0.158 to 4.71	CCCC[C@H]1C(=O)N(C)[C@@H](CO)C(=O)N[C@@H](CCCNC(=N)N)C(=O)NC(C(=O)NCC(N)=O)CSCC(=O)N[C@@H](Cc2ccc(O)cc2)C(=O)N(C)[C@@H](C)C(=O)N[C@@H](CC(N)=O)C(=O)N2CCC[C@H]2C(=O)N[C@@H](Cc2cnc[nH]2)C(=O)N[C@@H](CC(C)C)C(=O)N2CCC[C@H]2C(=O)N[C@@H](Cc2c[nH]c3ccccc23)C(=O)N[C@@H](CO)C(=O)N[C@@H](Cc2csc3ccccc23)C(=O)N1C (stereo partly shown) [Example 9044] ({CH2CO}-Y[NMeA]NPHLPWS[Bta][NMeNle][NMeS]R[ξC]G-NH2; thioether N-14)	–	–
